In patent US10016356B2, “Sebum secretion inhibitory agent” (BASF Beauty Care Solutions France S.A.S., priority 2008, dated 2018):

Key:
[1] = test system: squalene synthesis on explants of normal human skin; assay: Biosynthesis of squalene from 4-14C mevalonate on explants of normal human skin (in vitro); type: cell-based; conditions: percentage relative to untreated negative control; extracts of culture media; 24 h; n=3 biopsies; extract at 2%, zinc gluconate at 1%
Protocol: The principle of this evaluation is based on the measurement of the biosynthesis of squalene, a specific tracer of the production of human sebum by the sebocytes, from radiolabelled mevalonic acid.
1) Freshly taken biopsies of human skin (n=3) are incubated in 5 ml of culture medium in the presence or absence of the test products for 24 h.
2) An amount of radioactive products of 2 μCi of mevalonate 4-^14C is then added to the biopsies and the whole is incubated again for 24 h.
3) Extraction of the culture media and of the surface of the skin is carried out with isopropyl ether, then the skin samples are dried and weighed as dry weight.
4) The extraction products are analysed by thin-layer chromatography and the quantity of metabolites of ^14C-mevalonate (squalene) is evaluated.
The squalene on the surface of the skin in culture is extracted, then deposited on HPTLC (high-performance thin layer chromatography) plates and migrated after addition of 10 μg of a squalene standard by deposition in the presence of heptane as migration solvent. The radioactivity of the squalene is visualized in a conventional manner. Each radioactive spot corresponding to squalene is scraped onto the HPTLC plates and the radioactivity is measured using a scintillation counter. Each count was expressed in grams of dry tissue. […]

[2] = test system: Caucasian and Asian volunteers; assay: Clinical assessment of pore size and shiny appearance in volunteers applying the product once a day; type: in vivo, human; conditions: after 28 days of treatment, extract at 2%, zinc gluconate 1%
Protocol: (§1) Caucasian and Asian volunteers applied a test product once a day, in blind conditions. Clinical and instrumental assessments, by application of Sebutape™ patches, were carried out on D0, D14 and D28 and the contents of these samples of Sebutape™ patches were analysed quantitatively by image analyser (polarimetric imaging). Determination of the squalene taken in the Sebutape™ patches was carried out as follows:
(§2) The experiment was conducted on Caucasian and Asian volunteers according to the conditions described in Example 3 for 28 days of treatment (last application on D27 in the evening). Assessments carried out on D30 allowed the persistence of the effect of an extract according to the invention on the production of sebum to be evaluated, two days after stopping the treatment.

[3] = test system: Caucasian and Asian volunteers; assay: Determination of squalene in Sebutape patches (HPTLC, densitometry); type: in vivo, human; conditions: after 28 days of treatment; zinc gluconate 1%
Protocol: (§3) The principle of this evaluation is based on the clinical and instrumental analysis of samples of secretions of sebum using Sebutape™ patches according to the conventional method.
as §1
The Sebutape™ patches were treated by extraction with 10 ml of ether. The lipid residues were deposited on an HPTLC silica gel nanoplate on an aluminium support, one lane of which was reserved for receiving a deposit of 10 μg of squalene standard.
The contents of the plates were subjected to migration in heptane.
The squalene spots were then quantified by densitometry using an instrument of the ChromatoScan CS-93 (Shimadzu) type. Reading was based on absorption at 450 nm and the area of the peaks was expressed in arbitrary units in the table of results given below.

[4] = test system: Caucasian and Asian volunteers; assay: Number of active sebaceous glands (number of spots on Sebutape patches, image analysis); type: in vivo, human; conditions: extract at 2%, zinc gluconate 1%
Protocol: as §3, §1
At 28 days of treatment, the number of active sebaceous glands had decreased by 7.4% in the subjects who had applied the extract according to Example 1a) at 2% (measurement of the number of spots present on the patches compared against D0).
as §2

Asian volunteers = assay: Self-evaluation of skin texture (refinement of skin grain); type: in vivo, human; conditions: 2 days after stopping the 28-day treatment, extract at 2%, zinc gluconate positive control
Protocol: as §2
Moreover, 2 days after stopping the treatment, 71% of the Asian volunteers who had applied the extract according to Example 1a) at 2% declared that there was refinement of their skin grain (p<0.05). In comparison, only 52% of the volunteers in the group of volunteers who had applied the positive control (zinc gluconate) noticed an improvement in this parameter.

zinc gluconate
Measurement of squalene synthesis, Mean value [1]: 76.6%
pore size reduced by (clinical assessment) [2]: 17.5%
change of content of squalene in the sebum (signed) [3]: −14%
Active sebaceous glands, % Dn/D 0 ([4]; 2 days after D 28 (after stopping the treatment)): −3.8%
Active sebaceous glands, % Dn/D 0 ([4]; D 28): +8.5%
volunteers declaring refinement of their skin grain (self-evaluation) (Asian volunteers): 52%
